Where a name gives a salt, the structure may show the parent alone. Some results are limits rather than exact numbers.

27 compounds from ChEMBL document CHEMBL1137798, “Evaluation of natural products as inhibitors of human immunodeficiency virus type 1 (HIV-1) reverse transcriptase” (J Nat Prod, 1991) can be followed below.

The assay addresses Human immunodeficiency virus type 1 reverse transcriptase (Human immunodeficiency virus 1, UniProt Q72547). As to conditions: read-out: IC50 (converted).
As a reminder, the IC50 is the concentration that inhibits the measured activity by half. On to `COc1cc2c3cc1Oc1cc(ccc1O)C[C@@H]1c4c(cc(OC)c(O)c4Oc4ccc(cc4)C[C@@H]3N(C)CC2)CC[N+]1(C)C`, for which the IC50 is above 310 µM. On to `COc1ccc2[nH]c3c(C)c4ccncc4c(C)c3c2c1`, for which the IC50 is below 543 µM. Regarding `COc1coc(CO)cc1=O`, the 50% inhibitory concentration (IC50) was above 1280 µM. Regarding `C[C@H](O)C1=C[C@@]2(C=C[C@@H]3C(C(=O)O)=CO[C@@H](O[C@@H]4O[C@H](CO)[C@@H](O)[C@H](O)[C@H]4O)[C@@H]32)OC1=O`, the IC50 is above 438 µM. With `C/C=C1/CN(C(C)=O)[C@H]2Cc3c([nH]c4ccccc34)C(=O)C[C@@H]1[C@@H]2C(=O)OC`, the IC50 is above 526 µM. Regarding `COc1ccc2c(c1OC)-c1cc(ccc1O)/C=C\C(=O)O[C@H]1C[C@@H]3CCCCN3[C@H]2C1`, the IC50 is above 460 µM. As to `COc1c(O)cc(O)c2c(=O)c(O)c(-c3ccccc3)oc12`, the IC50 is above 734 µM. Take `COC(=O)C1=CO[C@@H](O[C@@H]2O[C@H](CO)[C@@H](O)[C@H](O)[C@H]2O)[C@H]2[C@@H]1C=C[C@@]21C=C([C@H](C)OC(=O)/C=C/c2ccc(O)cc2)C(=O)O1`: the IC50 was above 324 µM. Take `CC1=C(C)C(=O)O[C@@H]([C@](C)(O)[C@]2(O)CC[C@@]3(O)[C@@H]4C[C@H]5O[C@]56[C@@H](O)C=CC(=O)[C@]6(C)[C@H]4CC[C@]23C)C1`: the IC50 was above 398 µM. Under `COc1c2occc2c(CC(O)C(C)(C)O)c2ccc(=O)oc12` (configuration not stated) stands above 628 µM. As for `CC[C@H]1CN2CCc3cc(OC)c(OC)cc3[C@@H]2C[C@@H]1C[C@H]1NCCc2cc(OC)c(OC)cc21`, the IC50 was above 387 µM. With `CC[C@@]12CCCN3CC[C@@]4(C(=Nc5c(OC)cccc54)CC1)[C@H]32`, the IC50 was above 644 µM. Turning to `COc1cc2c(cc1OC)N1C(=O)C[C@]34C=CCN5CC[C@@H]2[C@@H](CC3)C514`, the IC50 was above 567 µM. With `CC[C@H]1CN2CCc3cc(OC)c(OC)cc3[C@@H]2C[C@@H]1CC1=NCCc2cc(OC)c(OC)cc21`, the IC50 was 17.3 µM. Regarding `COc1c2c(c(O)c3ccoc13)C(=O)[C@H]1c3cc4c(cc3OC[C@H]1O2)OCO4`, the IC50 is above 523 µM. The result for `COc1cc2c(OC)c3ccoc3nc2cc1O` reads above 816 µM; that for `COc1c2ccoc2nc2c(OC(C)=O)cccc12` [ACETYLROBUSRINE], above 777 µM.

Regarding `COc1cc2c(c3c1c(=O)c1ccccc1n3C)C=CC(C)(C)O2` [ACRONINE], the IC50 was above 622 µM. `COc1cc2c(c3c1/c(=N\N=c1/c4ccccc4n(C)c4c5c(cc(OC)c14)OC(C)(C)C=C5)c1ccccc1n3C)C=CC(C)(C)O2` [ACRONYCINE AZINE]: the IC50 was above 313 µM. Take `CC[C@H]1[C@@H]2C[C@H]3[C@@H]4N(C)c5ccccc5[C@]45C[C@@H]([C@@H]2[C@H]5O)N3[C@@H]1O` [AJMALINE]: the IC50 is above 613 µM. The result for `COC(=O)C1=CO[C@@H](C)[C@@H]2Cn3ccc4c5ccccc5nc-4c3C[C@H]12` [ALSTONINE HYDROCHLORIDE] reads below 390 µM; that for `C[C@]12CCC(=O)C=C1CC[C@@H]1[C@@H]2CC[C@]2(C)C(=O)CC[C@@H]12` [ANDROSTENEDIONE], above 698 µM.

Consider `COC(=O)C1=CCCN(C)C1` [ARECOLINE HYDROBROMIDE], for which the IC50 was above 847 µM. As for `COC(=O)C1=CO[C@@H](C)[C@@H]2CN3CCc4c([nH]c5ccc(OC)cc45)[C@@H]3C[C@H]12` [ARICINE], the IC50 is above 523 µM. Consider `CC(=O)N[C@H]1[C@H](O[C@H]2CC[C@]3(C)[C@H]4CC=C5[C@H]6CC(C)(C)CC[C@]6(C(=O)O)CC[C@@]5(C)[C@]4(C)CC[C@H]3C2(C)C)O[C@H](CO)[C@@H](O)[C@@H]1O` [ARIDANIN], for which the IC50 was above 303 µM.

In the case of `CC[C@@]12CCCN3CC[C@]4(c5cccc(OC)c5N(C(C)=O)[C@@H]4CC1)[C@H]32` [ASPIDOSPERMINE], the IC50 is above 564 µM.

For the compound `COc1ccc2cc3[n+](cc2c1OC)CCc1cc2c(cc1-3)OCO2` [BERBERINE CHLORIDE], the IC50 was 269 µM.
